A short description of the experiment: Antioxidant activity assessed as inhibition of lipid peroxidation at 300 uM by ferric thiocyanate method. The class given is functional.

The structures appear in SMILES notation.

This is an account of results in ChEMBL document CHEMBL1142594, “Antioxidative constituents of Etlingera elatior” (J Nat Prod, 2005).

With `O=C(/C=C/C=C/C=C/c1ccc(O)cc1)c1ccc(O)cc1`, the inhibition came out at 93.7%.
As for `COc1cc(/C=C/C(O)=C/C(=O)/C=C/c2ccc(O)cc2)ccc1O`, the inhibition came out at 92.5%.
With `Cc1c(C)c2c(c(C)c1O)CC[C@@](C)(CCC[C@H](C)CCC[C@H](C)CCCC(C)C)O2` the figure was 69.5%; with `O=C(/C=C/C=C/c1ccc(O)cc1)/C=C/c1ccc(O)cc1`, 92.1%.

One may read the inhibition as the relative decrease from the control value, in per cent.
